From patent US20240051952A1, “HMOX1 INDUCERS” (Mitobridge Inc., priority 2019, published 2024)

What follows are molecules tested on Human Heme Oxygenase-1 (HMOX-1) (assay: ELISA assay to measure human heme oxygenase-1 (HMOX-1) in HepG2 lysate). Conditions: fold change of human HMOX1 protein levels relative to DMSO control, HepG2.
Type: cell-based
Description: Example 143. ELISA Assay to Measure Human Heme Oxygenase-1 (HMOX-1) in HepG2 lysate
Reagents and Technical Notes:
ELISA capture antibody, standard HO-1, detection antibody and streptavidin HRP were supplied in the DuoSet IC Human total HO-1 ELISA from R&D systems (DYC3776-2). The substrate cocktail was KPL LumiGLO reserve Chemiluminescent Substrate (54-71-00). PBS was Corning Cellgro Cell Culture (21-040-CV). 10×PBS+0.05% tween20 (PBST) was from KPL.
All incubations of the plate were at room temperature (20° C.) in a closed drawer.
The ELISA plate was processed manually. All loadings were with a multichannel pipet. Plates were emptied by shaking into the sink and tapping onto paper towels to remove any remaining reagent. Plate washing was accomplished by loading all wells with PBS+0.05% tween20 (PBST) using a squirt bottle, shaking the PBST out and tapping the plate onto paper towels.
Preparation of the ELISA Plate: • 1. anti-HO-1 capture antibody was 1440 μg/ml after reconstitution in PBS. This antibody was diluted to 8 μg/ml in PBS and 50 μl per well was added to a 384 well greiner “lumitrac 200” plate. Incubated overnight. • 2. The plate was emptied and 100 μl PBS+1% BSA added to all wells. Incubated 90 minutes at room temperature.
Preparation of HepG2 Lysate: • 1. Cells were cultured in a 96-well tissue culture plate washed with PBS and then the plate frozen at −70° C. overnight. Plates were allowed to warm to ice temperature in an ice bucket. 20 μl of PBS, 0.5% Triton X100, 1 mM EDTA with 1×HALT™ protease inhibitors was added to each well and the plates incubated on ice for 1 hour. • 2. The lysates were frozen at −20° C. overnight.
Measurement of HMOX1 (“HO-1”) • 1. In a polypropylene 384 well plate, human HO-1(after reconstitution in PBS+0.5% Triton+1 mM EDTA) was serially diluted from 20 ng/ml 2-fold in PBS+0.5% triton-X100, 1 mM EDTA to make a 12-point standard curve including a zero point. • 2. In a polypropylene 96 well plate, HepG2 lysate was diluted 1 to 20 in Diluent #4 from DUOSET kit in which the assay standard is also diluted. • 3. The PBS+1% BSA was emptied from the ELISA plate and 30 μl of all samples and standards were added (duplicates recommended). The plate was incubated 90 minutes. • 4. Emptied plate and washed 4 times with PBST. • 5. Diluted HO-1 detection antibody to 200 ng/ml in PBS+1% BSA and added 30 μl to all wells. Incubated 90 minutes. • 6. Emptied plate and washed 4 times with PBST. • 7. Added 30 μl streptavidin HRP at 1/200 in PBS+1% BSA (stock streptavidin concentration not specified) to all wells. Incubated 30 minutes. • 8. Emptied plate and washed 4 times with PBST. • 9. Diluted Lumiglo reserve reagent two parts buffer to one part lumiglo substrate. Added 30 μl to all wells. Incubated 5 minutes. • 10. Measured chemiluminescence on spectramax M5 using 150 ms integration.
Table 1 below lists EC50 and fold changes of human HMOX1 protein levels relative to DMSO control upon treatment with representative compounds.

SMILES | Maximum Fold induction
CC(C)C(N)C(=O)OCCOCCNC(=O)c1ccc2c(c1)nc(Nc1nc3ccccc3o1)n2C.Cl (racemic) [Example 30, 2-(2-(2-(benzo[d]oxazol-2-ylamino)-1-methyl-1H-benzo[d]imidazole-5-carboxamido)ethoxy)ethyl DL-valinate hydrochloride] | 25-53
Cn1c(Nc2nc3ccccc3o2)nc2cc(C(=O)O)ccc21 [Example 1h, 2-(benzo[d]oxazol-2-ylamino)-1-methyl-1H-benzo[d]imidazole-5-carboxylic acid] | 7-38
COCCNC(=O)c1ccc2c(c1)nc(Nc1nc3ccccc3o1)n2C [Example 1i, 2-(benzo[d]oxazol-2-ylamino)-N-(2-methoxyethyl)-1-methyl-1H-benzo[d]imidazole-5-carboxamide] | 6-15
O=C(O)c1ccc2c(c1)nc(Nc1nc3ccc(OC(F)(F)F)cc3s1)n2C1CCOCC1 [Example 2d, 1-(tetrahydro-2H-pyran-4-yl)-2-((6-(trifluoromethoxy)benzo[d]thiazol-2-yl)amino)-1H-benzo[d]imidazole-5-carboxylic acid] | 10 (n = 2)
COCCNC(=O)c1ccc2c(c1)nc(Nc1nc3ccc(OC(F)(F)F)cc3s1)n2C1CCOCC1 [Example 2e, N-(2-methoxyethyl)-1-(tetrahydro-2H-pyran-4-yl)-2-((6-(trifluoromethoxy)benzo[d]thiazol-2-yl)amino)-1H-benzo[d]imidazole-5-carboxamide] | 20-33
CN1CCC(n2c(Nc3nc4ccc(OC(F)(F)F)cc4s3)nc3cc(C(=O)O)ccc32)CC1 [Example 3d, 1-(1-methylpiperidin-4-yl)-2-((6-(trifluoromethoxy)benzo[d]thiazol-2-yl)amino)-1H-benzo[d]imidazole-5-carboxylic acid] | 13
COCCNC(=O)c1ccc2c(c1)nc(Nc1nc3ccc(OC(F)(F)F)cc3s1)n2C1CCN(C)CC1 [Example 3e, N-(2-methoxyethyl)-1-(1-methylpiperidin-4-yl)-2-((6-(trifluoromethoxy)benzo[d]thiazol-2-yl)amino)-1H-benzo[d]imidazole-5-carboxamide] | 6-46
CN1CCC(n2c(Nc3nc4ccc(OC(F)(F)F)cc4s3)nc3cc(C(=O)O)ccc32)C1 (stereo not drawn) [Example 4d, 1-(1-methylpyrrolidin-3-yl)-2-((6-(trifluoromethoxy)benzo[d]thiazol-2-yl)amino)-1H-benzo[d]imidazole-5-carboxylic acid] | 29-33
COCCNC(=O)c1ccc2c(c1)nc(Nc1nc3ccc(OC(F)(F)F)cc3s1)n2C1CCN(C)C1 (stereo not drawn) [Example 4e, N-(2-methoxyethyl)-1-(1-methylpyrrolidin-3-yl)-2-((6-(trifluoromethoxy)benzo[d]thiazol-2-yl)amino)-1H-benzo[d]imidazole-5-carboxamide] | 19
COCCNC(=O)c1ccc2c(c1)nc(Nc1nc3c(s1)CCCC3)n2C [Example 5, N-(2-methoxyethyl)-1-methyl-2-((4,5,6,7-tetrahydrobenzo[d]thiazol-2-yl)amino)-1H-benzo[d]imidazole-5-carboxamide] | 7-12
CC(=O)N1CCc2nc(Nc3nc4cc(C(=O)NCCOCCO)ccc4n3C)sc2C1 [Example 10, 2-((5-acetyl-4,5,6,7-tetrahydrothiazolo[5,4-c]pyridin-2-yl)amino)-N-(2-(2-hydroxyethoxy)ethyl)-1-methyl-1H-benzo[d]imidazole-5-carboxamide] | 2
COCCNC(=O)c1ccc2c(c1)nc(Nc1nc3c(s1)COCC3)n2C [Example 11, 2-((6,7-dihydro-4H-pyrano[4,3-d]thiazol-2-yl)amino)-N-(2-methoxyethyl)-1-methyl-1H-benzo[d]imidazole-5-carboxamide] | 5
COCCNC(=O)c1ccc2c(c1)nc(Nc1nc3ccccc3[nH]1)n2C [Example 12, 2-((1H-benzo[d]imidazol-2-yl)amino)-N-(2-methoxyethyl)-1-methyl-1H-benzo[d]imidazole-5-carboxamide] | 5.5
COCCNC(=O)c1ccc2c(c1)nc(Nc1nc3cc(OC(F)(F)F)ccc3[nH]1)n2C [Example 14, N-(2-methoxyethyl)-1-methyl-2-((5-(trifluoromethoxy)-1H-benzo[d]imidazol-2-yl)amino)-1H-benzo[d]imidazole-5-carboxamide] | 6-25
Cn1c(Nc2nc3cc(C(=O)O)ccc3n2C)nc2cc(OC(F)(F)F)ccc21 [Example 15, 1-methyl-2-((1-methyl-5-(trifluoromethoxy)-1H-benzo[d]imidazol-2-yl)amino)-1H-benzo[d]imidazole-5-carboxylic acid] | 11-13
Cn1c(Nc2nc3ccccc3o2)nc2cc(C(=O)NCCO)ccc21 [Example 16, 2-(benzo[d]oxazol-2-ylamino)-N-(2-hydroxyethyl)-1-methyl-1H-benzo[d]imidazole-5-carboxamide] | 8-27
Cl.Cn1c(Nc2nc3ccccc3o2)nc2cc(C(=O)NCCN)ccc21 [Example 18, N-(2-aminoethyl)-2-(benzo[d]oxazol-2-ylamino)-1-methyl-1H-benzo[d]imidazole-5-carboxamide hydrochloride] | 41-52
CN(C)CC(=O)NCCNC(=O)c1ccc2c(c1)nc(Nc1nc3ccccc3o1)n2C [Example 19, 2-(benzo[d]oxazol-2-ylamino)-N-(2-(2-(dimethylamino)acetamido)ethyl)-1-methyl-1H-benzo[d]imidazole-5-carboxamide] | 14-26
Cn1c(Nc2nc3ccccc3o2)nc2cc(C(=O)NCCN3CCOCC3)ccc21 [Example 20, 2-(benzo[d]oxazol-2-ylamino)-1-methyl-N-(2-morpholinoethyl)-1H-benzo[d]imidazole-5-carboxamide] | 8
CN(C)CCNC(=O)c1ccc2c(c1)nc(Nc1nc3ccccc3o1)n2C [Example 21, 2-(benzo[d]oxazol-2-ylamino)-N-(2-(dimethylamino)ethyl)-1-methyl-1H-benzo[d]imidazole-5-carboxamide] | 14
CC(O)CNC(=O)c1ccc2c(c1)nc(Nc1nc3ccccc3o1)n2C (stereo not drawn) [Example 23, 2-(benzo[d]oxazol-2-ylamino)-N-(2-hydroxypropyl)-1-methyl-1H-benzo[d]imidazole-5-carboxamide] | 25-61
Cn1c(Nc2nc3ccccc3o2)nc2cc(C(=O)NCC(O)CO)ccc21 (stereo not drawn) [Example 24, 2-(benzo[d]oxazol-2-ylamino)-N-(2,3-dihydroxypropyl)-1-methyl-1H-benzo[d]imidazole-5-carboxamide] | 49
CC(O)COCCNC(=O)c1ccc2c(c1)nc(Nc1nc3ccccc3o1)n2C (stereo not drawn) [Example 25] | 26
Cn1c(Nc2nc3ccccc3o2)nc2cc(C(=O)NCC3(O)COC3)ccc21 [Example 26, 2-(benzo[d]oxazol-2-ylamino)-N-((3-hydroxyoxetan-3-yl)methyl)-1-methyl-1H-benzo[d]imidazole-5-carboxamide] | 26
Cn1c(Nc2nc3ccccc3o2)nc2cc(C(=O)NCCOCC(C)(C)O)ccc21 [Example 27, 2-(benzo[d]oxazol-2-ylamino)-N-(2-(2-hydroxy-2-methylpropoxy)ethyl)-1-methyl-1H-benzo[d]imidazole-5-carboxamide] | 17
Cn1c(Nc2nc3ccccc3o2)nc2cc(C(=O)NCCN3CCCC3)ccc21 [Example 28, 2-(benzo[d]oxazol-2-ylamino)-1-methyl-N-(2-(pyrrolidin-1-yl)ethyl)-1H-benzo[d]imidazole-5-carboxamide] | 41

Same assay, conditions: human HMOX1 protein in HepG2 lysate, ELISA; * = average of 2 or more EC50 determinations; NA = Not Active

SMILES | EC50 [nM]
COCCNC(=O)c1ccc2c(c1)nc(Nc1nc3c(s1)CCCC3)n2C [Example 5, N-(2-methoxyethyl)-1-methyl-2-((4,5,6,7-tetrahydrobenzo[d]thiazol-2-yl)amino)-1H-benzo[d]imidazole-5-carboxamide] | 1300
